According to US9321750B2, “ROR modulators and their uses” (INNOV17 LLC, priority 2012, dated 2016):

Assays:
[1] = target: T1, RORα LBD (Homo sapiens (Human), UniProt P35398); assay: TR-FRET co-activator D22 interaction with RORα LBD; assay type: biochemical
Text: (§1) The Time-Resolved Fluorescence Resonance Energy Transfer (TR-FRET) assay kit (Life Technologies) was used to measure compound efficacy to disrupt or enhance ligand-mediated interaction of the co-activator and co-repressor peptides with the purified GST-tagged (i) RORγ LBD or (ii) […]. The RORγ LBD and RORα LBD each have a basal level of interaction with the co-activator D22 or co-repressor NCoR1-D2 in the absence of ligand, thus it is possible to identify compounds that inhibit or induce RORγ and/or RORα co-activator/co-repressor interactions, thus determining RORα, RORγ, or RORα/RORγ compound selectivity. The assay was performed as per manufacturer's instructions and TR-FRET was assessed 2 and 20 hours post-assay initiation. Compounds were identified to (i) have no impact on either co-activator displacement or […] from the assessed LBD (ii) promote co-activator displacement from the assessed LBD (iii) promote co-repressor recruitment to the assessed LBD or (iv) concurrently promote co-activator displacement from the assessed LBD and co-repressor recruitment to the assessed LBD.

[2] = test system: TH17 cells; assay: TH17 cellular proliferation (Prestoblue); assay type: cell-based; settings: Homo sapiens, 120 h; 3 μM compound, after 5 day TH17 differentiation, relative to DMSO treated TH17 cells; read-out: % change in TH17 cell number
Procedure: (§2) Peripheral blood mononuclear cells (PBMCs) were sourced from freshly prepared leukocyte enriched plasma (buffy coat) from healthy volunteers from which PBMCs were isolated by density gradient centrifugation using Ficoll-Paque™ PLUS (GE Healthcare). Naïve CD4+ T cells were isolated using the Naïve CD4+ T cell Isolation Kit II (Miltenyi Biotec) as per manufacturer's instructions. CD4+ T cells were plated at 5×10^4 cells/well in 96 well plates pre-coated with immobilized human (h)-αCD3 antibody (eBioscience) then differentiated to TH17 cells using h-αCD28, h-αIFNγ, h-αIL4, h-IL6, h-IL23, h-IL1β, h-TGFβ1 (eBioscience) and maintained in a cell culture incubator at 37° C. with 5% CO2 in TexMACS Medium (Miltenyi Biotec) supplemented with 1% Penicillin/Streptomycin (Lonza) over 5 days.
Cellular proliferation was assessed in the presence or absence of 3 μM compound using Prestoblue® Cell Viability Reagent (Life Technologies) as per manufacturer's instructions using absorbance as the output measured by a microplate reader (Perkin Elmer) after 30 minutes of incubation of cells and reagent. A standard curve developed by plotting varying cell numbers versus absorbance was used to assess differences in cellular proliferation between compound treated or untreated cells after the 5 day TH17 differentiation period.

[3] = test system: IL-17F; assay: TH17 cytokine inhibition as measured by ELISA: IL-17F; assay type: cell-based; settings: 120 h; human TH17 cells, 5 days differentiation, ELISA of supernatant
Procedure: as §2
(§3) Human CD4+ T cells were differentiated to TH17 cells as described in the presence or absence of various concentrations of compounds in a final concentration of 0.1% DMSO in TexMACS medium. Supernatants were collected and stored at −20° C. until they were to be assayed for IL-17A, IL-17F, IL-17AF, IL-21 and/or IL-22 levels as determined by Ready-Set-Go ELISA kits (eBioscience) as per manufacturer's instructions. Endpoint absorbance was read at 450 nm and 570 nm according to manufacturer's instructions (eBioscience) using a microplate reader (Perkin Elmer). The percentage of cytokine inhibition was calculated with reference to DMSO treated cells and the IC50s were determined by GraphPad Prism software and presented in the table below.

[4] = test system: IL-17A; assay: TH17 cytokine inhibition as measured by ELISA: IL-17A; assay type: cell-based; settings: 120 h; human TH17 cells, 5 days differentiation, ELISA of supernatant
Procedure: as §2, §3

[5] = target: T2, RORγ LBD (Homo sapiens (Human), UniProt P51449); assay: TR-FRET co-repressor NCoR1-D2 interaction with RORγ LBD; assay type: biochemical
T2 sequence (P51449 269-508): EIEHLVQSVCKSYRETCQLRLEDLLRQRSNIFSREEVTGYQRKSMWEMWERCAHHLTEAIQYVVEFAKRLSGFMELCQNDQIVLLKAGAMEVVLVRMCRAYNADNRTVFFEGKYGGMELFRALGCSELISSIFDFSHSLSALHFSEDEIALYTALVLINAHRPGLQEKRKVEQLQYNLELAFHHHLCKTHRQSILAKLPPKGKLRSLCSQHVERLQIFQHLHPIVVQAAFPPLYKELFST
Text: as §1

[6] = TH17 cell viability (Prestoblue); assay type: cell-based; design: concentration or dose not given beside the values; settings: human; percentage of DMSO treated cells; read-out: % viability of compound treated TH17 cells
Procedure: as §2
Cells were assayed for viability in the presence or absence of compound using Prestoblue® Cell Viability Reagent (Life Technologies) as per manufacturer's instructions after 30 minutes incubation of TH17 cells with reagent. Absorbance was measured at 570 nm and 600 nm using a microplate reader (Perkin Elmer) and data were analyzed as per manufacturer's instructions. Cell viability was expressed as a percentage of DMSO treated cells.

[7] = target: T2, RORγ LBD; assay: TR-FRET co-activator D22 interaction with RORγ LBD; assay type: biochemical
Text: as §1

[8] = target: T1, RORα LBD; assay: TR-FRET co-repressor NCoR1-D2 interaction with RORα LBD; assay type: biochemical
Text: as §1

[9] = test system: IL-22; assay: TH17 cytokine inhibition as measured by ELISA: IL-22; assay type: cell-based; settings: 120 h; human TH17 cells, 5 days differentiation, ELISA of supernatant
Procedure: as §2, §3

[10] = 2 hr, read-out: RORα EC50 D22 co-activator displacement 2 hr
[11] = 20 hr, read-out: RORα EC50 D22 co-activator displacement 20 hr
[12] = 2 hr, read-out: RORγ EC50 NCoR1-D2 co-repressor recruitment 2 hr
[13] = 20 hr, read-out: RORγ EC50 NCoR1-D2 co-repressor recruitment 20 hr
[14] = 2 hr, read-out: RORγ EC50 D22 co-activator displacement 2 hr
[15] = 20 hr, read-out: RORγ EC50 D22 co-activator displacement 20 hr
[16] = 2 hr, read-out: RORα EC50 NCoR1-D2 co-repressor recruitment 2 hr
[17] = 20 hr, read-out: RORα EC50 NCoR1-D2 co-repressor recruitment 20 hr
[18] = 2 hr, co-activator recruitment (π), read-out: RORγ EC50 D22 2 hr (demonstrates co-activator recruitment)

T1 sequence (P35398 272-510): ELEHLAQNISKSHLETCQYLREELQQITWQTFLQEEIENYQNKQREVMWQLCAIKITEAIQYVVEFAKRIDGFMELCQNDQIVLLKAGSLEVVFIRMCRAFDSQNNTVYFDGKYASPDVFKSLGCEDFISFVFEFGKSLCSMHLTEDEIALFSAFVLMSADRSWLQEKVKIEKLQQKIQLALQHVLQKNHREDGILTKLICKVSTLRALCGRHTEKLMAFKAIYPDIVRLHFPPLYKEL

SMILES | EC50 [1, 10] | EC50 [1, 11] | inhibition at 3 µM [2] | IC50 [3] | IC50 [4] | EC50 [5, 12] | EC50 [5, 13] | viability [6] | EC50 [7, 14] | EC50 [7, 15] | EC50 [8, 16] | EC50 [8, 17] | IC50 [9] | EC50 [7, 18] | EC50 ([1]; 2 hr, co-activator recruitment (π), read-out: RORα EC50 D22 2 hr (demonstrates co-activator recruitment)) | EC50 ([1]; 20 hr, co-activator recruitment (π), read-out: RORα EC50 D22 20 hr (demonstrates co-activator recruitment))
CC(=O)Nc1ccc2c(c1)CCN2Cc1ccc(C(=O)N(C)C)cc1 [Example 13, 4-((5-acetamidoindolin-1-yl)methyl)-N,N-dimethylbenzamide] | > 30 µM | > 30 µM | ≤ 50% | > 10 µM | > 10 µM | > 30 µM | > 30 µM | > 80% | > 30 µM | > 30 µM | > 30 µM | > 30 µM | > 10 µM | – | – | –
CC(=O)Nc1ccc2c(ccn2Cc2ccc(C(O)(C(F)(F)F)C(F)(F)F)cc2)c1 [Example 16, N-(1-(4-(1,1,1,3,3,3-hexafluoro-2-hydroxypropan-2-yl)benzyl)-1H-indol-5-yl)acetamide] | < 30 µM | > 30 µM | ≤ 50% | < 10 µM | < 10 µM | > 30 µM | > 30 µM | > 80% | < 30 µM | < 30 µM | > 30 µM | < 30 µM | < 10 µM | – | – | –
CC(=O)Nc1ccc2c(c1)CCN2Cc1ccc(C2(O)CCC2)cc1 [Example 10, N-(1-(4-(1-hydroxycyclobutyl)benzyl)indolin-5-yl)acetamide] | < 30 µM | < 30 µM | – | > 10 µM | > 10 µM | > 30 µM | > 30 µM | > 80% | > 30 µM | > 30 µM | > 30 µM | > 30 µM | < 10 µM | – | – | –
CC(=O)Nc1ccc2c(c1)CCN2Cc1ccc(C(C)C)cc1 [Example 8, N-(1-(4-isopropylbenzyl)indolin-5-yl)acetamide] | > 30 µM | > 30 µM | ≤ 50% | < 10 µM | < 10 µM | > 30 µM | > 30 µM | > 80% | < 30 µM | < 30 µM | > 30 µM | > 30 µM | < 10 µM | – | – | –
CC(=O)Nc1ccc2c(c1)CCN2Cc1ccc(-c2cc(C)n[nH]2)cc1 [Example 9, N-(1-(4-(3-methyl-1H-pyrazol-5-yl)benzyl)indolin-5-yl)acetamide] | > 30 µM | > 30 µM | – | < 10 µM | < 10 µM | > 30 µM | > 30 µM | > 80% | > 30 µM | > 30 µM | > 30 µM | > 30 µM | < 10 µM | – | – | –
CC(=O)Nc1ccc2c(c1)CCN2Cc1ccc(C(=O)Nc2ccccc2)cc1 [Example 15, 4-((5-acetamidoindolin-1-yl)methyl)-N-phenylbenzamide] | > 30 µM | > 30 µM | ≤ 50% | < 10 µM | < 10 µM | > 30 µM | > 30 µM | > 80% | < 30 µM | < 30 µM | > 30 µM | > 30 µM | < 10 µM | – | – | –
CC(=O)Nc1ccc2c(c1)CCN2Cc1ccc(C(F)(F)F)cc1 [Example 7, N-(1-(4-(trifluoromethyl)benzyl)indolin-5-yl)acetamide] | > 30 µM | > 30 µM | ≤ 50% | < 10 µM | < 10 µM | > 30 µM | > 30 µM | > 80% | > 30 µM | < 30 µM | > 30 µM | > 30 µM | < 10 µM | – | – | –
CC(=O)Nc1ccc2c(c1)CCN2Cc1ccc(C(=O)N(C)c2ccccc2)cc1 [Example 14, 4-((5-acetamidoindolin-1-yl)methyl)-N-methyl-N-phenylbenzamide] | > 30 µM | > 30 µM | – | < 10 µM | < 10 µM | > 30 µM | > 30 µM | > 80% | – | > 30 µM | > 30 µM | > 30 µM | < 10 µM | < 30 µM | – | –
CC(=O)Nc1ccc2c(c1)CCN2Cc1ccc(C(N)=O)cc1 [Example 11, 4-((5-acetamidoindolin-1-yl)methyl)benzamide] | – | – | ≤ 50% | > 10 µM | > 10 µM | > 30 µM | > 30 µM | > 80% | – | > 30 µM | > 30 µM | > 30 µM | > 10 µM | < 30 µM | < 30 µM | < 30 µM
